For the assay, the system named is Plasmodium berghei. The experiment in a line: Luciferase/luciferin-expressing antifolate-resistant parasites were used to infect a culture of HepG2 cells that were pre-incubated with compounds. Infected hepatocytes emit light due to the luciferase reaction. Assay results are presented as the percent inhibition of light emission compared to control. […]. It is filed as functional. As to conditions: sporozoite; for IC90: read-out: LUCIFERASE INFECTION ASSAY - IC90.

Setting [1] is: read-out: LUCIFERASE INFECTION ASSAY - IC50.

Usually IC50 stands for the point on the concentration scale where inhibition reaches its midpoint. Usually IC90 stands for the point of the concentration-response curve where the effect stands at 90%.

`COc1ccc(NS(=O)(=O)c2cccc(C(=O)Nc3ncc(C)s3)c2)cc1Br`: the IC90 was 4.59 µM. Also, where the note is “HEPG2TOX_HILL_SLOPE 1.95, HEPG2TOX_R_SQUARED 0.754, PBLUC_HILL_SLOPE 9.08, 8.50, PBLUC_R_SQUARED 0.373, 0.408, read-out: LUCIFERASE INFECTION ASSAY - IC50”, the half-inhibitory concentration (IC50) worked out at 5.79 µM.
With `CC(N)C(=O)NCC(F)(F)F` (configuration not stated), the IC90 was over 10 µM. For the same compound, under setting [1], the IC50 is over 10 µM.
On to `CCOC(=O)c1ccc(NC2CCCCC2)c(/N=C/c2cc(Cl)cc(Cl)c2O)c1`, for which the IC90 was found to be 2.39 µM. Also, the IC50 (HEPG2TOX_HILL_SLOPE 1.82, HEPG2TOX_R_SQUARED 0.941, PBLUC_HILL_SLOPE 4.39, PBLUC_R_SQUARED 0.446, read-out: LUCIFERASE INFECTION ASSAY - IC50) was 1.45 µM.
With `Oc1cc(-c2ccccc2)nc2ccccc12`, the concentration for an effect of 90% (IC90) is 0.307 µM. For the setting “HEPG2TOX_HILL_SLOPE 0.704, HEPG2TOX_R_SQUARED 0.901, PBLUC_HILL_SLOPE 3.71, PBLUC_R_SQUARED 0.852, read-out: LUCIFERASE INFECTION ASSAY - IC50”, the IC50 was 0.17 µM.
On to `CCCc1oc2c(cc(NS(=O)(=O)c3ccc(Cl)cc3)c3ccccc32)c1C(=O)OCC`, for which the 90% effect concentration (IC90) is over 10 µM. Moreover, the 50% inhibitory concentration (IC50) (PBLUC_HILL_SLOPE 2.19, PBLUC_R_SQUARED 0.549, read-out: LUCIFERASE INFECTION ASSAY - IC50) was determined as 5.77 µM.
`Cc1nc(NCc2ccc(N3CCN(C)CC3)nc2)c2c(-c3ccccc3)csc2n1`: the IC90 stood at 3.73 µM. Also, the half-inhibitory concentration (IC50) (HEPG2TOX_HILL_SLOPE 1.47, HEPG2TOX_R_SQUARED 0.785, PBLUC_HILL_SLOPE 14.9, PBLUC_R_SQUARED 0.788, read-out: LUCIFERASE INFECTION ASSAY - IC50) stood at 3.22 µM.
On to `CCn1nc(C)c(CN2CCC3(CC2)C(=O)N(Cc2ccccc2)C(=O)N3CCc2ccccc2)c1C`, for which the 90% effect concentration (IC90) was over 6.6 µM. Moreover, the IC50 under setting [1] stood at 2.92 µM.
With `CCCNC(=O)c1c(NC(=O)c2cccc(C)c2)nc2ccccn12`, the IC90 was over 9.81 µM. Besides, where the note is “PBLUC_HILL_SLOPE 17.7, PBLUC_R_SQUARED 0.381, read-out: LUCIFERASE INFECTION ASSAY - IC50”, the half-inhibitory concentration (IC50) amounted to 9.1 µM.
As to `CN(C)c1ccc(-c2nccc3n[nH]c(-c4cccc(OC(F)(F)F)c4)c23)cc1`, the IC90 is over 10 µM. Moreover, under setting [1], the IC50 was over 10 µM.
As to `O=C(Cn1ncc(Cl)c(Cl)c1=O)Nc1ccc(F)c(F)c1F`, the IC90 was 9.46 µM. Where the note is “HEPG2TOX_HILL_SLOPE 271, HEPG2TOX_R_SQUARED 0.59, PBLUC_HILL_SLOPE 12.5, PBLUC_R_SQUARED 0.106, read-out: LUCIFERASE INFECTION ASSAY - IC50”, the IC50 is 7.93 µM.
For `CC(C)(C)c1ccc(-c2cnc3cnc(-c4cccnc4)cn23)cc1`, the 90% effect concentration (IC90) is 5.11 µM. The concentration for half-maximal inhibition (IC50) (PBLUC_HILL_SLOPE 7.55, PBLUC_R_SQUARED 0.755, read-out: LUCIFERASE INFECTION ASSAY - IC50) amounted to 3.82 µM.
Take `COc1cccc(C2=NN(C(=O)c3ccco3)C(c3ccccc3O)C2)c1` (configuration not stated): the concentration for an effect of 90% (IC90) was 8.57 µM. The half-maximal inhibitory concentration (IC50) (HEPG2TOX_HILL_SLOPE 15.7, HEPG2TOX_R_SQUARED 0.922, PBLUC_HILL_SLOPE 21, PBLUC_R_SQUARED 0.659, read-out: LUCIFERASE INFECTION ASSAY - IC50) stood at 7.72 µM.
Turning to `Oc1ccc(-c2cn3c(-c4ccsc4)cnc3cn2)cc1`, the concentration for an effect of 90% (IC90) is over 11.2 µM. Moreover, under setting [1], the half-maximal inhibitory concentration (IC50) amounted to 10.6 µM.
In the case of `CNc1ccc2ncc(-c3ccccc3)n2n1`, the IC90 amounted to 13.6 µM. Moreover, the IC50 (HEPG2TOX_HILL_SLOPE 2.41, HEPG2TOX_R_SQUARED 0.973, PBLUC_HILL_SLOPE 2.77, PBLUC_R_SQUARED 0.442, read-out: LUCIFERASE INFECTION ASSAY - IC50) was found to be 6.15 µM.
Consider `Nc1c(NC2CCCCC2)cc(NCCO)c2c1C(=O)c1ccccc1C2=O`, for which the concentration for an effect of 90% (IC90) was over 8.7 µM. In addition, the half-inhibitory concentration (IC50) (PBLUC_HILL_SLOPE 3.41, PBLUC_R_SQUARED 0.438, read-out: LUCIFERASE INFECTION ASSAY - IC50) was over 8.7 µM.
In the case of `O=C(Nc1nnc(C2CC2)s1)c1cccc(S(=O)(=O)N2CCc3ccccc32)c1`, the IC90 is over 10 µM. For the same compound, the concentration for half-maximal inhibition (IC50) under setting [1] was over 10 µM.
For the compound `CCCc1cc(=O)n2nc(C)c(-c3ccc(Cl)cc3)c2[nH]1`, the concentration for an effect of 90% (IC90) worked out at 4.98 µM. In addition, for the setting “PBLUC_HILL_SLOPE 10.5, PBLUC_R_SQUARED 0.468, read-out: LUCIFERASE INFECTION ASSAY - IC50”, the half-inhibitory concentration (IC50) came to 4.03 µM.
Consider `Oc1c(Br)cc(/C=C/c2nc3cc(Cl)ccc3o2)cc1Br`, for which the IC90 was over 10 µM. Further, the 50% inhibitory concentration (IC50) (HEPG2TOX_HILL_SLOPE 9.25, HEPG2TOX_R_SQUARED 0.294, read-out: LUCIFERASE INFECTION ASSAY - IC50) was over 10 µM.
In the case of `CN(C)CCNC(=O)c1ccc(-c2cn3c(-c4ccc(Oc5ccccc5)cc4)cnc3cn2)cc1`, the IC90 was over 6.91 µM. Besides, the IC50 under setting [1] was 5.8 µM.
As for `COc1ccc(C2CCCN2Cc2cc(=O)oc3cc(C)c(Cl)cc23)c(OC)c1` (configuration not stated), the concentration for an effect of 90% (IC90) is over 10 µM. For the same compound, the IC50 (PBLUC_HILL_SLOPE 2.17, PBLUC_R_SQUARED 0.455, read-out: LUCIFERASE INFECTION ASSAY - IC50) came to 6.43 µM.
Consider `COc1ccc(OCC[N+](C)(Cc2csc(Nc3ccccc3)n2)Cc2csc(Nc3ccccc3)n2)cc1`, for which the IC90 was 7.93 µM. The IC50 (HEPG2TOX_HILL_SLOPE 7.97, HEPG2TOX_R_SQUARED 0.988, PBLUC_HILL_SLOPE 3.3, PBLUC_R_SQUARED 0.694, read-out: LUCIFERASE INFECTION ASSAY - IC50) came to 4.08 µM.
On to `Cn1ccnc1S/C(=C/C=C(C#N)C#N)c1ccc(Cl)cc1`, for which the IC90 is over 10.1 µM. Further, for the setting “HEPG2TOX_HILL_SLOPE 6.6, HEPG2TOX_R_SQUARED 0.647, PBLUC_HILL_SLOPE 3.43, PBLUC_R_SQUARED 0.702, read-out: LUCIFERASE INFECTION ASSAY - IC50”, the IC50 was 5.57 µM.
For the compound `CCOC(=O)c1cc(-c2ccccc2)sc1NC(=O)CSc1nnc(-c2cccnc2)n1-c1ccccc1C`, the 90% effect concentration (IC90) was over 10 µM. In addition, the IC50 (PBLUC_HILL_SLOPE 3.21, PBLUC_R_SQUARED 0.715, read-out: LUCIFERASE INFECTION ASSAY - IC50) is 6.74 µM.
For `CCCCc1[nH]nc2ccnc(-c3cncc(OC)c3)c12`, the concentration for an effect of 90% (IC90) was over 10 µM. Moreover, for the setting “HEPG2TOX_HILL_SLOPE 1.78, HEPG2TOX_R_SQUARED 0.895, read-out: LUCIFERASE INFECTION ASSAY - IC50”, the IC50 was over 10 µM.
On to `CCCc1nc2ccccc2n1CC(=O)N1N=C(c2ccc(Cl)cc2)CC1c1ccco1` (configuration not stated), for which the IC90 was over 10 µM. Besides, for the setting “PBLUC_HILL_SLOPE 1.73, PBLUC_R_SQUARED 0.265, read-out: LUCIFERASE INFECTION ASSAY - IC50”, the IC50 is over 10 µM.
Consider `O=C(/C=C/c1ccccc1[N+](=O)[O-])OCc1nc2ccccc2s1`, for which the IC90 is over 10 µM. For the same compound, where the note is “PBLUC_HILL_SLOPE 15.4, PBLUC_R_SQUARED 0.138, read-out: LUCIFERASE INFECTION ASSAY - IC50”, the IC50 was over 10 µM.
On to `CCOC(=O)c1sc2c(c1C)C(c1ccccc1)C1C(=O)CC(C)(C)CC1=N2` (configuration not stated), for which the 90% effect concentration (IC90) was 4.4 µM. Under setting [1], the IC50 came to 1.87 µM.
Consider `COc1ccc(-c2cc(-c3cc(C)ccc3O)c3c(n2)-c2ccccc2C3=O)cc1`, for which the IC90 was over 10 µM. For the same compound, the IC50 (PBLUC_HILL_SLOPE 6.66, 3.32, PBLUC_R_SQUARED 0.385, 0.180, read-out: LUCIFERASE INFECTION ASSAY - IC50) was 9.15 µM.
Take `Cc1ccc(NS(=O)(=O)c2ccc(C(=O)Nc3ncccc3O)cc2)cc1C`: the concentration for an effect of 90% (IC90) worked out at 1.88 µM. For the same compound, the IC50 (FFLUC_HILL_SLOPE 12.3, FFLUC_R_SQUARED 0.189, HEPG2TOX_HILL_SLOPE 11.2, HEPG2TOX_R_SQUARED 0.187, PBLUC_HILL_SLOPE 1.78, PBLUC_R_SQUARED 0.764, read-out: LUCIFERASE INFECTION ASSAY - IC50) stood at 0.549 µM.
As to `CN1C(=O)NC(c2ccccc2C(F)(F)F)C(C(=O)c2cccs2)C1(O)C(F)(F)F` (configuration not stated), the IC90 is over 10 µM. Also, the IC50 under setting [1] was over 10 µM.
Take `COc1ccccc1C(=O)Nc1cc(-c2cn3cccnc3n2)ccc1C`: the IC90 was over 10 µM. Moreover, the IC50 (HEPG2TOX_HILL_SLOPE 18.3, HEPG2TOX_R_SQUARED 0.752, PBLUC_HILL_SLOPE 13.2, PBLUC_R_SQUARED 0.331, read-out: LUCIFERASE INFECTION ASSAY - IC50) was found to be 9.08 µM.
On to `COc1ccc(-c2cnc(N)c(-c3cccnc3)c2)cc1OC`, for which the IC90 came to 9.72 µM. Moreover, the IC50 (HEPG2TOX_HILL_SLOPE 1.35, HEPG2TOX_R_SQUARED 0.969, PBLUC_HILL_SLOPE 2.37, PBLUC_R_SQUARED 0.379, read-out: LUCIFERASE INFECTION ASSAY - IC50) is 3.85 µM.
Take `CCn1c2ccccc2c2cc(Nc3c(C#N)c(=O)n(C)c(=O)n3C)ccc21`: the IC90 is 0.508 µM. For the same compound, the IC50 (HEPG2TOX_HILL_SLOPE 1.91, HEPG2TOX_R_SQUARED 0.9, PBLUC_HILL_SLOPE 11.3, PBLUC_R_SQUARED 0.663, read-out: LUCIFERASE INFECTION ASSAY - IC50) came to 0.418 µM.
As for `CN(CCCN1C(=O)c2ccccc2C1=O)CC(=O)N(C)C`, the IC90 was over 10 µM. Further, the IC50 under setting [1] was over 10 µM.
Consider `COc1cc2[nH]c(CN3CCN(c4ncccn4)CC3)nc(=O)c2cc1OC`, for which the IC90 was over 10 µM. Further, the IC50 (PBLUC_HILL_SLOPE 2.49, PBLUC_R_SQUARED 0.0972, read-out: LUCIFERASE INFECTION ASSAY - IC50) was found to be 7.74 µM.
As to `Cc1cc(C)nc(-n2nc(C)cc2Nc2ccccc2)n1`, the IC90 was over 10 µM. Also, the IC50 (PBLUC_HILL_SLOPE 12.8, PBLUC_R_SQUARED 0.114, read-out: LUCIFERASE INFECTION ASSAY - IC50) is over 10 µM.

(Values after ChEMBL document CHEMBL4483862, “Open-source discovery of chemical leads for next-generation chemoprotective antimalarials” (2018).)
